Data reported in ChEMBL document CHEMBL1201862, “PubChem BioAssay data set” (2004).
Activity calls are given as the source filed them.

Experiments:
[1] = target: T1, Dual specificity protein phosphatase 6 (Rattus norvegicus, UniProt Q64346); assay: MKP-3 phosphatase inhibitors, primary screen, biochemical, rat enzyme, in vitro (AID 425)
T1 sequence (Q64346 whole entry): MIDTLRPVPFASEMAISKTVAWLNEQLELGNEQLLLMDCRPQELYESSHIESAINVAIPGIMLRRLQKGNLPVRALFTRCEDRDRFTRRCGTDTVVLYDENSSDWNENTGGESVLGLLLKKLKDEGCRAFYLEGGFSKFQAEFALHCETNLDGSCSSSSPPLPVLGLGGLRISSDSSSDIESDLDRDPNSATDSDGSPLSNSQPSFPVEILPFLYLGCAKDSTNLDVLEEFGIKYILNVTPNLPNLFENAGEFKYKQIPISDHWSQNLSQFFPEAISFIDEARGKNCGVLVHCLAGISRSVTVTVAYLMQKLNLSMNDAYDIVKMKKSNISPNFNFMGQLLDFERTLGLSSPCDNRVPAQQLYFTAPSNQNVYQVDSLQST

[2] = target: T2, Tyrosine-protein phosphatase non-receptor type 22 (Homo sapiens, UniProt Q9Y2R2); assay: inhibitors of LYP phosphatase, biochemical, fluorescence intensity, uHTS (AID 1779)
T2 sequence (Q9Y2R2 whole entry): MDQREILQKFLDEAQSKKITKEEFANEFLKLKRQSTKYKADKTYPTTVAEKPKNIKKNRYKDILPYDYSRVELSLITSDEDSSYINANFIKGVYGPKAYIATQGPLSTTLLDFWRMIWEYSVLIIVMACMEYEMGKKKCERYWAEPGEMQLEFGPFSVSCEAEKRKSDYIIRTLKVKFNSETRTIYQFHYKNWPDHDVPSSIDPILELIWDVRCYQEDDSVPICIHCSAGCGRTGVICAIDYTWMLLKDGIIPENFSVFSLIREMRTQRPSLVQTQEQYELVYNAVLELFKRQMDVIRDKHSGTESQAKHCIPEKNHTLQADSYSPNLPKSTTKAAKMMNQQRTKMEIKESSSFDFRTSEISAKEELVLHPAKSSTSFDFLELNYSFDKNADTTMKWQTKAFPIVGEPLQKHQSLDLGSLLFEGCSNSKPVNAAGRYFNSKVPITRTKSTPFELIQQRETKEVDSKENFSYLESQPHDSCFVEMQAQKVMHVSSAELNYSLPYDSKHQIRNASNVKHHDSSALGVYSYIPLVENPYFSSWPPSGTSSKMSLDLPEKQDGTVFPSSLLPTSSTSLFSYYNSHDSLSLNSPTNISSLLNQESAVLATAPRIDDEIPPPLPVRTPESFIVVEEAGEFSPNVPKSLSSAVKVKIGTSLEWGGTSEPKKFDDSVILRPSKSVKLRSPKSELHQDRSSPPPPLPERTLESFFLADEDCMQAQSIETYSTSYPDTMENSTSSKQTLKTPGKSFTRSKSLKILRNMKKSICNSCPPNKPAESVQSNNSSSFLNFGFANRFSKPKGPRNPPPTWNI

[3] = target: T3, Apoptotic protease-activating factor 1 (Homo sapiens, UniProt O14727); format: functional
T3 sequence (O14727 whole entry): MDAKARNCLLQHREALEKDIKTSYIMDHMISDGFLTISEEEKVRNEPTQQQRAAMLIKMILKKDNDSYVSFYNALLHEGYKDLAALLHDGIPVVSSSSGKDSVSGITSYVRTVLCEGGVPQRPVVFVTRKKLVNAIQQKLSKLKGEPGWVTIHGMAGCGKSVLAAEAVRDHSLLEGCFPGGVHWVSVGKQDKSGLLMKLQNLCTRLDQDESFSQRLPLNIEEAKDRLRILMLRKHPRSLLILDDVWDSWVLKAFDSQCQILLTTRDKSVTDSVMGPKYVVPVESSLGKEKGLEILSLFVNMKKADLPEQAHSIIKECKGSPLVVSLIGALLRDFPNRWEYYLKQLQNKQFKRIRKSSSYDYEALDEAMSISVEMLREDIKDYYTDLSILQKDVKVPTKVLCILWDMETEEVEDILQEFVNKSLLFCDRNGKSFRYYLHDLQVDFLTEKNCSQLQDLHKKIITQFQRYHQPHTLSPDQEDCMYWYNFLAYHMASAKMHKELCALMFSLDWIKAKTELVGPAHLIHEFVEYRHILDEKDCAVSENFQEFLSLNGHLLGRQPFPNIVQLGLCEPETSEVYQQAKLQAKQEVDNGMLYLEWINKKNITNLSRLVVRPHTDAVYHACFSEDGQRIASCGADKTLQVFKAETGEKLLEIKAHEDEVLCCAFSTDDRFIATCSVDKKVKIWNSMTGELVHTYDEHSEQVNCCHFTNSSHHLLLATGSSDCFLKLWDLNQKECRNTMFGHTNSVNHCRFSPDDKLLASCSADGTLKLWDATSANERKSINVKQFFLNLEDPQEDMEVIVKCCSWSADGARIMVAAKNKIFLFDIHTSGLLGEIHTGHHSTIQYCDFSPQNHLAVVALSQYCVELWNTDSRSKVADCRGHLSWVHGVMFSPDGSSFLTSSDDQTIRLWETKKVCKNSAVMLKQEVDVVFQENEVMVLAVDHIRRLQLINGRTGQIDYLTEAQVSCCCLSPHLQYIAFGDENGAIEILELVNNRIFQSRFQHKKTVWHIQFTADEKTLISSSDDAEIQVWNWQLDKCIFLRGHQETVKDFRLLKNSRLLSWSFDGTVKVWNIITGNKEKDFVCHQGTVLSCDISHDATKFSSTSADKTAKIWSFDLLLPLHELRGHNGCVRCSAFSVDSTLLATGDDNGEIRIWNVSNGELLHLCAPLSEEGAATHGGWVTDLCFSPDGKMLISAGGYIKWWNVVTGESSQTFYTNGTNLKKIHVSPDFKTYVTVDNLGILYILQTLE

Caspase-6 = target: T4, Caspase-6 (Homo sapiens, UniProt P55212); assay: human caspase-6 inhibitors, dose response, biochemical, VEID-R110 fluorescence, cherry-pick (AID 720632)
T4 sequence (P55212 whole entry): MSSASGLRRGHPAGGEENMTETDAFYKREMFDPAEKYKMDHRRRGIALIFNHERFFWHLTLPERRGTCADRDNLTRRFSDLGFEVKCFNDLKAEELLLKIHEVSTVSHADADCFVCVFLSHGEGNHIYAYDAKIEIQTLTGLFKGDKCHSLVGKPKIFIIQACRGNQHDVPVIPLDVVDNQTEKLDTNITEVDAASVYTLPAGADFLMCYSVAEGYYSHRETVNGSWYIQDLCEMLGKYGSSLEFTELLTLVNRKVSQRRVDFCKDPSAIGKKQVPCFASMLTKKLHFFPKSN

Row | Compound | IC50 [1] | IC50 [2] | IC50 [3] | AC50 (Caspase-6)
1 | CCOC(=O)c1sc2nc3c(SCC(=O)O)cc(C(=O)c4ccccc4O)cn3c(=O)c2c1C | 103 µM (not active) | > 99 µM (inactive) | – | –
2 | CCOC(=O)c1ccc(Nc2cc3ccccc3c(O)n2)cc1 | – | – | 8.78 µM (active) | 15.7 µM (active)
3 | C=CCn1c(NC(=O)c2ccccc2Cl)c(C#N)c2nc3ccccc3nc21 | > 100 µM (not active) | – | 13.7 µM (active) | 10.4 µM (active)
